Results published in article PMC7083851, “Extended pharmacodynamic responses observed upon PROTAC-mediated degradation of RIPK2” (Communications Biology, 2020).
Where “and” joins values, the source holds several entries; their conditions need not be identical. Identical values can stand only once. Like-named read-outs stand apart in the source and are kept apart here.

Experiments:
[1] = Blood concentrations after subcutaneous dosing in rat PK/PD studies; format: in vivo
Method: Female CD rats (7–8 weeks old on arrival, Charles River Ltd.) were placed into groups using a randomization schedule based on body weight prior to the study start. All animals were acclimatized for a minimum of one week prior to the experiment commencing. […] PROTAC 4 was dissolved in saline with the pH adjusted to 5.0 with sodium hydroxide (1 M).

RIPK2 = test: In vivo RIPK2 degradation in rat (PBMCs isolated from blood, Western blot)
Method: (§1) Rat PK/PD studies: On arrival, all rats were housed in a plastic solid bottom cage in groups of 2–3 with access to food and water ad libitum and under a 12 h light–dark cycle. Male CD or Wistar Han rats (7–9 weeks old, Charles River UK Ltd.) were randomly allocated to treatment groups upon arrival. Female CD rats (7–8 weeks old on arrival, Charles River Ltd.) were placed into groups using a randomization schedule based on body weight prior to the study start. All animals were acclimatized for a minimum of one week prior to the experiment commencing.
Subcutaneous PROTAC solution formulations were prepared on the day of dosing as outlined below and filtered through a 0.22 µm Millex PVDF filter (Millipore) prior to PROTAC administration. PROTAC 4 was dissolved in saline with the pH adjusted to 5.0 with sodium hydroxide (1 M). […].
(§2) Ex vivo stimulation of rat blood with L18-MDP for PD: PPD blood samples taken prior to PROTAC administration or at fixed timepoints post PROTAC administration through the course of the study, were treated ex vivo with 100 ng/mL L18-MDP (Invivogen) or vehicle (0.1% DMSO) and incubated for 4 h. Following centrifugation, plasma was collected for cytokines analysis as detailed in cytokines assay section. Additionally, RIPK2 levels were determined in PBMCs isolated from blood and where collected, in sampled colon tissue as described in the text.
Blood was mixed with optiPREP (Sigma) and following centrifugation at 1300 × g the PBMCs layer was collected. For in vivo studies, RIPK2 levels were determined immediately via immunoblotting, whereas for in vitro studies PBMCs were treated as detailed in the in vitro treatment section.
(§3) Statistics and reproducibility: All data were represented as percentage of the control sample: DMSO treated cells for the in vitro assays and the pre-dose or vehicle sample for the in vivo experiments.
For in vivo studies, RIPK2:tubulin ratios and cytokine levels from each individual experiment were analysed either using a One-way ANOVA with Dunnet’s post-test or a two way ANOVA using GraphPad Prism 5.0.4 to determine statistical significance with 95% confidence levels.

[2] = tested on: L18-MDP-stimulated TNFα release; test: TNFα after ex vivo L18-MDP stimulation of blood from dosed rats; format: in vivo, rat; settings: for TNFa level after ex vivo L18-MDP stimulation vs pre-dose, individual rat: 20 mg/kg SC single dose, 7-day study
Method: as §1, with “Male” for “Rat PK/PD studies: On arrival, all rats were housed in a plastic solid bottom cage in groups of 2–3 with access to food and water ad libitum and under a 12 h light–dark cycle. Male”
Subcutaneous PROTAC solution formulations were prepared on the day of dosing as outlined below and filtered through a 0.22 µm Millex PVDF filter (Millipore) prior to PROTAC administration. PROTAC 4 was dissolved in saline with the pH adjusted to 5.0 with sodium hydroxide (1 M).
as §2
Cytokine measurement assay: Cytokine levels were measured in rat plasma or rat PBMCs cell culture supernatants using rat V-Plex TNFα, in human plasma or human PBMCs cell culture supernatants with either TNFα tissue culture or 7-plex kit. Rat serum and tissues samples from the in vivo L18-MDP acute inflammation model were analyzed using the rat TNFα, Il-6 and IL-8 U-Plex kits. All kits provided by Meso Scale Discovery (MSD). Levels of cytokines spontaneously released from human colon biopsies cell culture supernatants were measured using Human IL-1 beta/IL-1F2 DuoSet ELISA (Bio-techne), Human IL-6 ELISA (Immunotools) and Human TNF-alpha DuoSet ELISA (Bio-techne). All samples were processed accordingly to the manufacturer’s instructions. The MSD plates were analyzed using the MSD sector imager 6000 plate reader and cytokines concentration (pg/ml) was obtained by using the MSD DISCOVERY WORKBENCH software version 4.0.12.1
as §3

[3] = 20 mg/kg SC single dose, 7-day study, 8 h
[4] = 20 mg/kg SC single dose, 7-day study, 24 h
[5] = 20 mg/kg SC single dose, 7-day study, 72 h
[6] = 20 mg/kg SC single dose, 7-day study, 168 h
[7] = 20 mg/kg SC, 14-day study, 72 h
[8] = 20 mg/kg SC, 14-day study, 240 h

Structure (SMILES): CN[C@@H](C)C(=O)N[C@H](C(=O)N1CCC[C@H]1c1nc(C(=O)c2ccc(F)cc2)cs1)C1CCN(C(=O)c2cnc(N3CCN(CCOc4cc5ncnc(Nc6n[nH]c(C)c6C)c5cc4S(=O)(=O)C(C)(C)C)CC3)nc2)CC1 [PROTAC 4]
- blood concentration, individual rat ([1]; 5 mg/kg SC, 14-day study, 0.25 h): 79.2 ng/mL and 80.8 ng/mL and 137 ng/mL
- PK, blood concentration, individual rat ([1]; 20 mg/kg SC single dose, 7-day study, 0.25 h): 142.1 ng/mL and 262.3 ng/mL and 219.2 ng/mL and 88.3 ng/mL and 114.7 ng/mL
- PK, blood concentration, individual rat ([1]; 20 mg/kg SC single dose, 7-day study, 0.5 h): 113.3 ng/mL and 220.7 ng/mL and 177.2 ng/mL and 88.4 ng/mL and 248.8 ng/mL
- PK, blood concentration, individual rat ([1]; 20 mg/kg SC single dose, 7-day study, 1 h): 131.0 ng/mL and 198.9 ng/mL and 114.6 ng/mL and 195.5 ng/mL
- PK, blood concentration, individual rat ([1]; 20 mg/kg SC single dose, 7-day study, 2 h): 110.9 ng/mL and 278.2 ng/mL and 204.9 ng/mL and 96.5 ng/mL and 292.6 ng/mL
- PK, blood concentration, individual rat ([1]; 20 mg/kg SC single dose, 7-day study, 4 h): 211.6 ng/mL and 307.5 ng/mL and 375.8 ng/mL and 186.8 ng/mL and 240.9 ng/mL
- PK, blood concentration, individual rat [1, 3]: 104.7 ng/mL and 227.5 ng/mL and 262.0 ng/mL and 193.4 ng/mL and 268.5 ng/mL
- PK, blood concentration, individual rat [1, 4]: 240.6 ng/mL and 261.7 ng/mL and 347.0 ng/mL and 497.6 ng/mL and 315.9 ng/mL and 347 ng/mL
- PK, blood concentration, individual rat [1, 5]: 253.7 ng/mL and 143.8 ng/mL and 111.7 ng/mL and 90.2 ng/mL and 121.5 ng/mL and 90.15 ng/mL
- PK, blood concentration, individual rat [1, 6]: 15.0 ng/mL and 7.4 ng/mL and 9.6 ng/mL and 9.4 ng/mL and 6.1 ng/mL and 15.02 ng/mL and 7.438 ng/mL and 9.644 ng/mL and 9.399 ng/mL and 6.103 ng/mL
- blood concentration, individual rat ([1]; 20 mg/kg SC, 14-day study, 0.25 h): 103 ng/mL and 111 ng/mL and 92.3 ng/mL and 10.6 ng/mL and 39.4 ng/mL
- blood concentration, individual rat ([1]; 20 mg/kg SC, 14-day study, 0.5 h): 115 ng/mL and 140 ng/mL and 82.5 ng/mL and 99.9 ng/mL
- blood concentration, individual rat ([1]; 20 mg/kg SC, 14-day study, 1 h): 173 ng/mL and 63.3 ng/mL and 90.1 ng/mL and 113 ng/mL and 45.9 ng/mL
- blood concentration, individual rat ([1]; 20 mg/kg SC, 14-day study, 2 h): 141 ng/mL and 113 ng/mL and 120 ng/mL and 223 ng/mL
- blood concentration, individual rat ([1]; 20 mg/kg SC, 14-day study, 4 h): 226 ng/mL and 313 ng/mL and 572 ng/mL and 294 ng/mL and 206 ng/mL
- blood concentration, individual rat ([1]; 20 mg/kg SC, 14-day study, 8 h): 159 ng/mL and 180 ng/mL and 329 ng/mL and 167 ng/mL and 200 ng/mL
- blood concentration, individual rat ([1]; 20 mg/kg SC, 14-day study, 24 h): 698 ng/mL and 518 ng/mL and 213 ng/mL and 503 ng/mL and 150 ng/mL
- blood concentration, individual rat [1, 7]: 14.1 ng/mL and 69.4 ng/mL and 30 ng/mL and 33.4 ng/mL and 57.6 ng/mL
- blood concentration, individual rat ([1]; 20 mg/kg SC, 14-day study, 168 h): 3.47 ng/mL and 10.5 ng/mL and 2.32 ng/mL and 3.82 ng/mL and 4.88 ng/mL
- blood concentration, individual rat [1, 8]: 1.11 ng/mL and 2.09 ng/mL and 1.34 ng/mL
- concentration at 7 days ([1]; rat, blood, sc, 20 mg/kg, rat, single 20 mg/kg SC, after 7 days, read-out: compound levels in blood at later time-points): < 10 ng/mL
- concentration at 1 h ([1]; rat, blood, subcutaneous, 20 mg/kg, 20 mg/kg SC single dose, 7-day study, 1 h, read-out: PK, blood concentration, individual rat): 132 ng/mL
- concentration at 0.5 h ([1]; rat, blood, subcutaneous, 20 mg/kg, 20 mg/kg SC, 14-day study, 0.5 h, read-out: blood concentration, individual rat): 126 ng/mL
- concentration at 2 h ([1]; rat, blood, subcutaneous, 20 mg/kg, 20 mg/kg SC, 14-day study, 2 h, read-out: blood concentration, individual rat): 124 ng/mL
- concentration at 240 h ([1]; rat, blood, subcutaneous, 20 mg/kg, 20 mg/kg SC, 14-day study, 240 h, read-out: blood concentration, individual rat): 1.68 ng/mL
- concentration at […] ([1]; rat, blood, subcutaneous, 20 mg/kg, 20 mg/kg SC, 14-day study, […], read-out: blood concentration, individual rat): 1.71 ng/mL
- concentration at 24 h ([1]; rat, whole blood, subcutaneous, 1 mg/kg, 1 mg/kg SC, 14-day study, 24 h, read-out: blood concentration, individual rat): 7.14 ng/mL
- concentration at 72 h ([1]; rat, whole blood, subcutaneous, 1 mg/kg, 1 mg/kg SC, 14-day study, 72 h, read-out: blood concentration, individual rat): 1.67 ng/mL
- concentration at 24 h ([1]; rat, whole blood, subcutaneous, 5 mg/kg, 5 mg/kg SC, 14-day study, 24 h, read-out: blood concentration, individual rat): 29.2 ng/mL
- concentration at 168 h ([1]; rat, whole blood, subcutaneous, 5 mg/kg, 5 mg/kg SC, 14-day study, 168 h, read-out: blood concentration, individual rat): 4.77 ng/mL
- concentration at 240 h ([1]; rat, whole blood, subcutaneous, 5 mg/kg, 5 mg/kg SC, 14-day study, 240 h, read-out: blood concentration, individual rat): 1.13 ng/mL
- RIPK2 level vs pre-dose, individual rat (RIPK2; 1 mg/kg SC, 14-day study, 8 h): 71.55% and 45.26% and 58.63% and 60.59% and 55.33%
- RIPK2 level vs pre-dose, individual rat (RIPK2; 1 mg/kg SC, 14-day study, 72 h): 64.81% and 59.31% and 60.99% and 66.83% and 64.49%
- RIPK2 level vs pre-dose, individual rat (RIPK2; 1 mg/kg SC, 14-day study, 240 h): 112.79% and 70.63% and 104.75% and 126.83% and 102.52%
- RIPK2 level vs pre-dose, individual rat (RIPK2; 5 mg/kg SC, 14-day study, 8 h): 41.85% and 45.44% and 41.77% and 41.32% and 53.21%
- RIPK2 level vs pre-dose, individual rat (RIPK2; 5 mg/kg SC, 14-day study, 72 h): 34.61% and 30.18% and 38.68% and 37.78% and 36.11%
- RIPK2 level vs pre-dose, individual rat (RIPK2; 5 mg/kg SC, 14-day study, 240 h): 87.11% and 99.39% and 92.18% and 103.23% and 99.62%
- RIPK2 level vs pre-dose, individual rat (RIPK2; [3]): 28.87% and 26.27% and 38.47% and 28.32% and 30.61%
- RIPK2 level vs pre-dose, individual rat (RIPK2; [4]): 18.69% and 14.21% and 28.44% and 16.94% and 23.48%
- RIPK2 level vs pre-dose, individual rat (RIPK2; [5]): 6.86% and 4.61% and 6.88% and 8.62% and 8.55%
- RIPK2 level vs pre-dose, individual rat (RIPK2; [6]): 12.52% and 6.26% and 20.35% and 12.51% and 16.81%
- RIPK2 level vs pre-dose, individual rat (RIPK2; 20 mg/kg SC, 14-day study, 8 h): 37.50% and 45.03% and 47.72% and 58.85% and 77.11%
- RIPK2 level vs pre-dose, individual rat (RIPK2; [7]): 13.52% and 12.63% and 25.66% and 9.20% and 12.50%
- RIPK2 level vs pre-dose, individual rat (RIPK2; [8]): 60.06% and 118.48% and 58.34% and 98.90% and 86.42%
- RIPK2 degradation (RIPK2; rat, 14-day study, all dose levels (1, 5, 20 mg/kg SC), 8 h): 40–60%
- RIPK2 protein levels, in words (RIPK2; rat, 14-day study, each dose group, 240 h): returned to baseline levels
- RIPK2 degradation (RIPK2; rat, single 20 mg/kg SC, 72 h): > 80%
- RIPK2 degradation (RIPK2; rat, single 20 mg/kg SC, 168 h): > 80%
- TNFa level after ex vivo L18-MDP stimulation vs pre-dose, individual rat ([2]; 8 h): 9.24% and 8.84% and 7.78% and 9.53% and 3.34%
- TNFa level after ex vivo L18-MDP stimulation vs pre-dose, individual rat ([2]; 24 h): 3.87% and 3.74% and 8.65% and 6.37% and 4.55%
- TNFa level after ex vivo L18-MDP stimulation vs pre-dose, individual rat ([2]; 72 h): 10.34% and 56.63% and 10.25% and 43.76% and 3.57%
- TNFa level after ex vivo L18-MDP stimulation vs pre-dose, individual rat ([2]; 168 h): 12.29% and 8.70% and 24.16% and 13.36% and 15.12%
- TNFα inhibition following ex vivo L18-MDP stimulation in rat blood ([2]; single 20 mg/kg SC, throughout the 7-day study): > 70%
